Measured values published in PMC9027599, “Secondary Metabolites in Basil, Bio-Insecticide, Inhibition Effect, and In Silico Molecular Docking against Proteolytic Enzymes of the Red Palm Weevil (Rhynchophorus ferrugineus)” (Plants, 2022).
Values after ≈ are worked out from the molar mass of the structure shown.

Assays:
[1] = tested on: trypsin-like serine proteinase; assay: Trypsin-like activity of midgut from larvae treated 24 h (in vivo); set-up: species or system Rhynchophorus ferrugineus; settings: midgut of fourth instar larvae treated for 24 h
Description: (§1) The midguts were homogenized in the assay buffer (100 mM Tris-HCl, pH 8.1) and centrifuged for 30 min at 8000 rpm (Sigma 3K 30, rotors No. 12158). […] […] (100 mg/mL in DMF), BAρNA (100 mg/mL in DMSO), and […] (100 mg/mL in DMF) stock substrates were diluted in the assay buffer to 1 mg/mL, and substrate volume was 50 μL. […] The activity was quantified using an ELISA plate reader at a wavelength of 405 nm. As an empty well, an assay combination containing a denaturation enzyme was utilized instead of an active enzyme. […] To learn more about the proteases found in homogenate preparations of R. ferrugineus fourth midgut larval instars, inhibitors from many different types of mechanisms were used. […] As a control, an assay combination devoid of inhibitors was utilized. The absorbance of the enzymes was determined using an ELISA plate quick reader at various wavelengths. The percentage activity of the control enzyme for each inhibitor was evaluated for each enzyme. […] Larvae were exposed for 24 h to leaf discs treated with extract and compounds.

total proteases [2] = assay: Total protease activity of midgut from larvae treated 24 h (in vivo); set-up: species or system Rhynchophorus ferrugineus; settings: midgut of fourth instar larvae treated for 24 h
Description: (§2) The Lowry technique was used to determine the protein concentrations. Total proteolytic activity was determined in the fourth midgut instar larval (lab strain) homogenate of R. ferrugineus with azocasein in accordance with […] et al. […] [70]. […] Using a Sigma 3k30 cooling centrifuge, reserve homogenates prepared in a previous stage were spun at 5000 rpm for 30 min. Estimates of protein content and total proteolytic enzyme activity were made using the supernatants. The supernatant (10 μL) was incubated at 37 °C for 20 min, and the volume was adjusted to 60 μL using an assay buffer (pH 8), before adding azocasien (200 μL, 2% (w/v)). […] Following that, to activate the reaction, the substrate was introduced 20 min for Leupeptin, so the reaction was halted after 180 min at 37 °C with 300 μL of cool tri-chloroacetic acid (TCA) (10% (v/v). The mixture was centrifuged for 20 min at 5000 rpm (Sigma 3k30 cooling centrifuge). […] To learn more about the proteases found in homogenate preparations of R. ferrugineus fourth midgut larval instars, inhibitors from many different types of mechanisms were used. […] As a control, an assay combination devoid of inhibitors was utilized. The absorbance of the enzymes was determined using an ELISA plate quick reader at various wavelengths. The percentage activity of the control enzyme for each inhibitor was evaluated for each enzyme. […] Larvae were exposed for 24 h to leaf discs treated with extract and compounds.

total proteases [3] = assay: Total proteolytic activity of fourth instar midgut homogenate, azocasein (in vitro); format: biochemical, Rhynchophorus ferrugineus; settings: fourth instar larvae midgut homogenate
Description: as §2

R. ferrugineus adults = assay: whole plant or invertebrate; settings: Rhynchophorus ferrugineus
Description: The R. ferrugineus adult and larvae were acquired from an insect breeding lab at King Faisal University’s Date Palm Research Center of Excellence and grown utilizing sugarcane stem long pieces. The extracts activity against larvae was determined by using topical application method with storing larvae at 4–5 °C for 5 min. Previous serial concentrations of extract (10 µL) were applied to the dorsum of each larvae using a hand-operated micro-applicator (Burkard Manufacturing Co., Ltd., Hertfordshire, UK with a 50-ll micro-syringe (MS-N50; Ito Corp., Shizuoka, Japan). Each larva was feeding on 10 cm stem pieces of long sugarcane, with 5 larvae/box with three replicates. After topical administration, larval mortality was determined after 24, 48, 72, and 96 h to determine the LD50. Adults were tested for antifeedant effect determined using ten-centimeter-long sections of sugarcane stem divided into equal longitudinal halves. Pieces of long sections of sugarcane stem with area ~32.2 cm^2 were dipped for ten seconds in the previous serial concentration of extract (10 mL) and, then, dried in room temperature air. […] Each package received a replacement pair (male and female). Each treatment was replicated ten times. After 24, 48, 72, and 96 h, feeding observations were assayed.
Finney states that the statistical analysis and probit analysis were conducted using the SPSS 25.0 program (Statistical Package for Social Sciences, Armonk, NY, USA). Chemical components were determined by PCA using SPSS 25.0 program and presented using XLSTAT 2018.1. PCA is a clustering technique that is used to determine the relationships between samples. […] We did a mortality against dosage regression and converted the resultant median dose to an LC50 value (µg/mL). The range of LC50 was calculated with a 95 percent confidence interval using least-squares. We conducted a one-way analysis of variance on the enzyme activity data (ANOVA). The Student–Newman–Keuls (SNK) test was applied with separate means, and differences at p ≤ 0.05 were considered significant.

[4] = target: trypsin-like serine proteinase; assay: Serine proteinase microplate assay, BApNA (in vitro); format: biochemical, Rhynchophorus ferrugineus; settings: fourth instar larvae midgut homogenate
Description: as §1, with “The specific activities of serine proteinase were determined using a rapid quick microplate assay with substrates in reaction mixtures (150 μL) including a serine protease assay buffer, according to […] et al. and Olga et al. with modifications. The midguts” for “The midguts”

elastase [5] = assay: Elastase activity of midgut from larvae treated 24 h (in vivo); set-up: species or system Rhynchophorus ferrugineus; settings: midgut of fourth instar larvae treated for 24 h
Description: as §1

elastase [6] = assay: Serine proteinase microplate assay, SAAPLpNA (in vitro); format: biochemical, Rhynchophorus ferrugineus; settings: fourth instar larvae midgut homogenate
Description: as §1, with “The specific activities of serine proteinase were determined using a rapid quick microplate assay with substrates in reaction mixtures (150 μL) including a serine protease assay buffer, according to […] et al. and Olga et al. with modifications. The midguts” for “The midguts”

| Compound | IC50 against trypsin-like serine proteinase (in vivo) [1] [µg/mL] | IC50 against total proteases (in vivo) (total proteases [2]) [µg/mL] | IC50 against total proteases (in vitro) (total proteases [3]) [µg/mL] | LC50 (R. ferrugineus adults) [µg/mL] | IC50 against trypsin-like serine proteinase (in vitro) [4] [µg/mL] | IC50 against elastase (in vivo) (elastase [5]) [µg/mL] | IC50 against elastase (in vitro) (elastase [6]) [µg/mL] |
| --- | --- | --- | --- | --- | --- | --- | --- |
| O=C(O)C[C@H](C(=O)O)[C@@H](O)C(=O)O [Isocitric acid] | 314.8 | 486.3 | 143.3 | 1830 (≈ 9.5 mM) | – | – | – |
| O=C(/C=C/c1ccc(O)c(O)c1)O/C=C\c1ccc(O)c(O)c1 [Nepetoidin B] | 102.7 | 179.4 | 102.4 | 1320 (≈ 4.19 mM) | 86.7 | – | – |
| C[C@@H]1O[C@@H](OC[C@H]2O[C@@H](Oc3c(-c4ccc(O)c(O)c4)oc4cc(O)cc(O)c4c3=O)[C@H](O)[C@@H](O)[C@@H]2O)[C@H](O)[C@H](O)[C@H]1O [Quercetin-3-O-rutinoside] | 325.5 | 286.4 | 82.6 | 1210 (≈ 1.99 mM) | 104.5 | – | – |
| O=C(/C=C/c1ccc(O)c(O)c1)O[C@H](Cc1ccc(O)c(O)c1)C(=O)O [Rosmarinic acid] | 174.6 | 186.2 | 109.6 | 1500 (≈ 4.15 mM) | 91.3 | 119.7 | 96.4 |
| COc1ccc(-c2cc(=O)c3c(O)c(OC)c(OC)cc3o2)cc1 [Salvigenin, 5-Hydroxy-6,7,4′-trimethoxyflavone] | 241.2 | 164.8 | 72.4 | 1190 (≈ 3.62 mM) | 59.2 | 138.2 | 105.6 |
| dicaffeoyl-tartaric acid [Chicoric acid] | 75.1 | 146.2 | 63.1 | – | 51.6 | – | – |
